Test results taken from patent publication US6589975B2, “Synthetic compounds for treatment of inflammation” (The Regents of the University of California, priority 1998, dated 2003).
Where “and” joins values, the source holds several entries; their conditions need not be identical. Equal values may be shown once. Marks after values point to notes of the source that are not given here.

Tests used:
[1] = test system: PMA-induced mouse ear edema; test: Inhibition of PMA-induced inflammation (edema) of the mouse ear; assay type: in vivo; design: Mean (edema): unit not given here; conditions: for ED50, topical inhibition of PMA-induced mouse ear edema: with PMA; for Difference (left ear minus right ear), single animals: listed as Compound I
Protocol: (§1) The test compound and a known inflammatory agent, phorbol myristate acetate (PMA), are topically applied simultaneously to the left ears of mice. Three hours and 20 minutes following application, the mice are sacrificed. Both left ears and right ears are removed and standard sized bores taken. Edema (inflammation) is measured as the difference in weight between left and right ears. See Van Arman, C. G. (1974) Clin. Pharmacol. Ther. 16:900-904, which is herein incorporated by reference.
as §1, with “Soritin B and” for “The test compound and”, “(PMA), were” for “(PMA), are”, “mice were” for “mice are”, “ears were” for “ears are”, “(inflammation) was” for “(inflammation) is”

[2] = test system: RTX-induced mouse ear edema; test: Inhibition of resiniferatoxin (RTX)-induced inflammation (edema) of the mouse ear; assay type: in vivo; design: Mean (edema): unit not given here; conditions: for % Inhibition of Edema (RTX-induced edema in mouse ears): Dose 50 μg/ear; for activity in inhibition of RTX-induced edema: in words; for % Inh. Of Edema / Mean (edema) / Mean (difference, edema) / Difference (left ear minus right ear), single animals: RTX 0.1 μg/ear; for ED50 for inhibition of RTX-induced edema: topical, with RTX
Protocol: Induction of mouse ear edema can be conducted according to known methods. See Inoue, 1-f., N. Nagata, Y. Koshffiara (1993), which is herein incorporated by reference. Compounds to be tested for anti-neurogenic inflammatory activity are topically applied in acetone to the ears of mice in a solution that includes the edema-causing irritant resiniferatoxin (RTX). […] After a 30-minute incubation, the mice are sacrificed, the ears removed, and bores taken and weighed. Edema is measured by subtracting the weight of the right ear (acetone control) from the weight of the left ear (treated). Results are recorded as % decrease (inhibition) or % increase (potentiation) in edema relative to the control group edema.
Soritin B was tested for anti-neurogenic inflammatory activity by topically applying in acetone to the ears of mice in a solution that includes the edema-causing irritant resiniferatoxin (RTX) as provided above. See Inoue, 1-f., N. Nagata, Y. Koshffiara (1993), which is herein incorporated by reference. […] After a 30-minute incubation, the mice are sacrificed, the ears removed, and bores taken and weighed. Edema was measured by subtracting the weight of the right ear (acetone control) from the weight of the left ear (treated). Results were recorded as % decrease (inhibition) or % increase (potentiation) in edema relative to the control group edema.

[3] = Soritin B assay: coloration in solution; assay type: physicochemical; conditions: dissolved in acetone
[4] = 3.12 μg/ear, PMA 2.0 μg/ear, n = 15
[5] = 6.25 μg/ear, PMA 2.0 μg/ear, n = 15
[6] = 12.5 μg/ear, PMA 2.0 μg/ear, n = 15
[7] = 25 μg/ear, PMA 2.0 μg/ear, n = 15
[8] = 50 μg/ear, listed as Compound I

In the case of `C[C@]12CCC(=O)C=C1CC[C@@H]1[C@@H]2[C@@H](O)C[C@@]2(C)[C@H]1CC[C@]2(O)C(=O)CO` [Hydrocortisone, hydrocortisone, reference compound], the “ED50, topical inhibition of PMA-induced mouse ear edema” value (“ED50, topical inhibition” below) [1] was 20 μg/ear.

With `COc1ccc2c(c1)c(CC(=O)O)c(C)n2C(=O)c1ccc(Cl)cc1` [Indomethacin, indomethacin, reference compound] the “ED50, topical inhibition” value [1] was 250 μg/ear.

In the case of `c1ccc2c(Cc3c[nH]c4ccccc34)c[nH]c2c1` [HB-236, bis(3,3′indolyl)methane], the “% Inhibition of Edema (RTX-induced edema in mouse ears)” value (from here on “% Inhibition of Edema”) [2] was 59.1% and the “activity in inhibition of RTX-induced edema” value [2] was “show activity”.

For `COC(=O)C(c1c[nH]c2ccccc12)c1c[nH]c2ccccc12` [Soritin B, bis-(1H-indol-3-yl)-acetic acid methyl ester], the “% Inh. Of Edema” value [1, 4] was 14.6%, the “Mean (edema)” value [1, 4] was 10.0** and the “% Inh. Of Edema” value [1, 5] was 17.1%. The “Mean (edema)” value [1, 5] was 9.7**, the “% Inh. Of Edema” value [1, 6] was 27.1% and the “Mean (edema)” value [1, 6] was 8.6*. For the same molecule, the “% Inh. Of Edema” value [1, 7] was 50.0%, the “Mean (edema)” value [1, 7] was 5.9* and the “Mean (edema)” value ([1]; 50 μg/ear, PMA 2.0 μg/ear, n = 15) was 3.4*. For the same molecule, the “ED50, topical inhibition” value [1] was 24.2 μg/ear, the color in solution [3] was “light amber color” and the “% Inh. Of Edema” value ([2]; 3.12 μg/ear, n = 15) was 7.7%. The “Mean (edema)” value ([2]; 3.12 μg/ear, n = 15) was 9.1, the “% Inh. Of Edema” value ([2]; 6.25 μg/ear, n = 15) was 34.3% and the “Mean (edema)” value ([2]; 6.25 μg/ear, n = 15) was 6.5*. For the same molecule, the “% Inh. Of Edema” value ([2]; 12.5 μg/ear, n = 15) was 61.0%, the “Mean (edema)” value ([2]; 12.5 μg/ear, n = 15) was 3.2* and the “% Inh. Of Edema” value ([2]; 25 μg/ear, n = 14) was 79.2%. The “Mean (edema)” value ([2]; 25 μg/ear, n = 14) was 1.7*, the “Mean (edema)” value ([2]; 50 μg/ear, n = 15) was 1.0* and the “ED50 for inhibition of RTX-induced edema” value [2] was 10.9 μg/ear.

In the case of `O=CC(c1c[nH]c2ccccc12)c1c[nH]c2ccccc12` [HB-237, 2,2-bis(3,3′indolyl) acetaldehyde], the “% Inhibition of Edema” value [2] was 50.1% and the “activity in inhibition of RTX-induced edema” value [2] was “show activity”.

In the case of `O=C(c1nc(-c2c[nH]c3ccccc23)c[nH]1)c1c[nH]c2cc(O)ccc12` [Topsentin, topsentin, reference compound], the “ED50, topical inhibition” value [1] was 15 μg/ear.

In the case of `CC1=C(CC/C(C)=C/CCC2=CC[C@H](C3=CC(=O)O[C@H]3O)O[C@H]2O)C(C)(C)CCC1` [Manoalide, manoalide, reference compound], the “ED50, topical inhibition” value [1] was 100 μg/ear.

For `O=C(O)C(c1c[nH]c2ccccc12)c1c[nH]c2ccccc12` [Soritin A, bis-(1H-indol-3-yl)-acetic acid], the “% Inh. Of Edema” value ([1]; 3.12 μg/ear, PMA 2 μg/ear) was 52.9%, the “Mean (difference, edema)” value ([1]; 3.12 μg/ear, PMA 2 μg/ear) was 6.4 mg and the “Difference (left ear minus right ear), single animals” value (from here on “Difference (left ear minus right ear)”) ([1]; 3.12 μg/ear, PMA 2 μg/ear) was 4.0 mg and 8.7 mg (2×) and 4.3 mg. For the same molecule, the “% Inh. Of Edema” value ([1]; 6.25 μg/ear, PMA 2 μg/ear) was 75.1%, the “Mean (difference, edema)” value ([1]; 6.25 μg/ear, PMA 2 μg/ear) was 3.4 mg and the “Difference (left ear minus right ear)” value ([1]; 6.25 μg/ear, PMA 2 μg/ear) was 1.2 mg and 4.5 mg and 2.4 mg and 5.5 mg. The “% Inh. Of Edema” value ([1]; 12.5 μg/ear, PMA 2 μg/ear) was 77.3%, the “Mean (difference, edema)” value ([1]; 12.5 μg/ear, PMA 2 μg/ear) was 3.1 mg and the “Difference (left ear minus right ear)” value ([1]; 12.5 μg/ear, PMA 2 μg/ear) was 4.1 mg and 1.9 mg and 1.2 mg and 5.2 mg. For the same molecule, the “% Inh. Of Edema” value ([1]; 25 μg/ear, PMA 2 μg/ear) was 84.9%, the “Mean (difference, edema)” value ([1]; 25 μg/ear, PMA 2 μg/ear) was 2.1 mg and the “Difference (left ear minus right ear)” value ([1]; 25 μg/ear, PMA 2 μg/ear) was 1.7 mg and 3.4 mg and 0.4 mg and 2.8 mg. For the same molecule, the “% Inh. Of Edema” value ([1]; 50 μg/ear, PMA 2 μg/ear) was 87.5%, the “Mean (difference, edema)” value ([1]; 50 μg/ear, PMA 2 μg/ear) was 1.7 mg and the “Difference (left ear minus right ear)” value ([1]; 50 μg/ear, PMA 2 μg/ear) was 1.6 mg and 2.2 mg and 1.3 mg and 1.7 mg. The “potency in reducing PMA-induced mouse ear edema relative to known anti-inflammatories” value ([1]; in words) was “greater potency than the known anti-inflammatories hydrocortisone, indomethacin, manoalide and topsentin”, the “ED50, topical inhibition” value [1] was 1.3 μg/ear and the “% Inh. Of Edema” value ([2]; 3.12 μg/ear) was 49.9%. For the same molecule, the “Mean (difference, edema)” value ([2]; 3.12 μg/ear) was 6.0 mg, the “Difference (left ear minus right ear)” value ([2]; 3.12 μg/ear, listed as Compound I) was 6.0 mg (2×) and 6.6 mg and 7.1 mg and 4.1 mg and 6.3 mg and the “% Inh. Of Edema” value ([2]; 6.25 μg/ear) was 33.6%. For the same molecule, the “Mean (difference, edema)” value ([2]; 6.25 μg/ear) was 8.0 mg, the “Difference (left ear minus right ear)” value ([2]; 6.25 μg/ear, listed as Compound I) was 6.0 mg and 11.2 mg and 7.3 mg and 10.1 mg and 8.3 mg and 5.0 mg and the “% Inh. Of Edema” value ([2]; 12.5 μg/ear) was 76.8%. The “Mean (difference, edema)” value ([2]; 12.5 μg/ear) was 2.8 mg, the “Difference (left ear minus right ear)” value ([2]; 12.5 μg/ear, listed as Compound I) was 3.8 mg and 3.6 mg and 3.1 mg and 1.1 mg and 1.7 mg and 3.4 mg and the “% Inh. Of Edema” value ([2]; 25 μg/ear) was 87.9%. For the same molecule, the “Mean (difference, edema)” value ([2]; 25 μg/ear) was 1.5 mg, the “Difference (left ear minus right ear)” value ([2]; 25 μg/ear, listed as Compound I) was 4.1 mg and 0.2 mg and 2.1 mg and 0.6 mg and 0.3 mg and the “Mean (difference, edema)” value ([2]; 50 μg/ear) was 0.3 mg. The “% Inh. Of Edema” value [2, 8] was 97.7%, the “Difference (left ear minus right ear)” value [2, 8] was 0.1 mg and −0.2 mg (2×) and 1.5 mg and the “% Inh. Of Edema” value ([2]; 50 μg/ear, listed as Soritin A (I)) was “approximately 97.7%”. The “% Inhibition of Edema” value [2] was 97.7% and the “ED50 for inhibition of RTX-induced edema” value [2] was 5.1 μg/ear.
